Source: PubChem BioAssay (NCI)
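These data come from cells grown in 96-well plates and exposed to compound for 48 hours at five concentrations. GI50 marks 50% less growth. TGI is the concentration that stops growth completely.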

Experiments:
Experiment in all cases: NCI anticancer screen, dose series, 48 h
786-0 renal = system: 786-0 renal
A498 renal = system: A498 renal
A549 NSCLC = system: A549 NSCLC
ACHN renal = system: ACHN renal
BT-549 breast = system: BT-549 breast
CAKI-1 renal = system: CAKI-1 renal
CCRF-CEM leukemia = system: CCRF-CEM leukemia
COLO 205 colon = system: COLO 205 colon
DU-145 prostate = system: DU-145 prostate
EKVX NSCLC = system: EKVX NSCLC
HCC-2998 colon = system: HCC-2998 colon
HCT-116 colon = system: HCT-116 colon
HCT-15 colon = system: HCT-15 colon
HL-60(TB) leukemia = system: HL-60(TB) leukemia
HOP-62 NSCLC = system: HOP-62 NSCLC
HOP-92 NSCLC = system: HOP-92 NSCLC
HS 578T breast = system: HS 578T breast
HT29 colon = system: HT29 colon
IGROV1 ovarian = system: IGROV1 ovarian
K-562 leukemia = system: K-562 leukemia
KM12 colon = system: KM12 colon
LOX IMVI melanoma = system: LOX IMVI melanoma
M14 melanoma = system: M14 melanoma
MALME-3M melanoma = system: MALME-3M melanoma
MCF7 breast = system: MCF7 breast
MDA-MB-231 breast = system: MDA-MB-231 breast
MDA-MB-435 = system: MDA-MB-435
MOLT-4 leukemia = system: MOLT-4 leukemia
NCI-H226 lung = system: NCI-H226 lung
NCI-H23 lung = system: NCI-H23 lung
NCI-H460 lung = system: NCI-H460 lung
NCI-H522 lung = system: NCI-H522 lung
NCI/ADR-RES ovarian = system: NCI/ADR-RES ovarian
OVCAR-3 ovarian = system: OVCAR-3 ovarian
OVCAR-4 ovarian = system: OVCAR-4 ovarian
OVCAR-5 ovarian = system: OVCAR-5 ovarian
OVCAR-8 ovarian = system: OVCAR-8 ovarian
PC-3 prostate = system: PC-3 prostate
RPMI-8226 leukemia = system: RPMI-8226 leukemia
RXF 393 renal = system: RXF 393 renal
SF-268 CNS = system: SF-268 CNS
SF-295 CNS = system: SF-295 CNS
SF-539 CNS = system: SF-539 CNS
SK-MEL-2 melanoma = system: SK-MEL-2 melanoma
SK-MEL-28 melanoma = system: SK-MEL-28 melanoma
SK-MEL-5 melanoma = system: SK-MEL-5 melanoma
SK-OV-3 ovarian = system: SK-OV-3 ovarian
SN12C renal = system: SN12C renal
SNB-19 CNS = system: SNB-19 CNS
SNB-75 CNS = system: SNB-75 CNS
SR leukemia = system: SR leukemia
SW-620 colon = system: SW-620 colon
T-47D breast = system: T-47D breast
TK-10 renal = system: TK-10 renal
U251 CNS = system: U251 CNS
UACC-257 melanoma = system: UACC-257 melanoma
UACC-62 melanoma = system: UACC-62 melanoma
UO-31 renal = system: UO-31 renal

Work on `COc1ccc(/C=C2\CCCC3=C2NC(N)=NC3c2ccc(OC)c(OC)c2)cc1OC` (stereo unspecified) yielded a GI50 (786-0 renal) of 14.2 µM, a TGI (786-0 renal) greater than 100 µM and a GI50 (A498 renal) of 13.1 µM. For the same compound, the TGI (A498 renal) was greater than 82.6 µM, the GI50 (A549 NSCLC) was 33.2 µM and the TGI (A549 NSCLC) was greater than 100 µM. It also gave a GI50 (ACHN renal) of 4.14 µM, a TGI (ACHN renal) greater than 76.2 µM and a GI50 (BT-549 breast) of 3.62 µM. For the same compound, the TGI (BT-549 breast) was greater than 100 µM, the GI50 (CAKI-1 renal) was 4.11 µM and the TGI (CAKI-1 renal) was greater than 100 µM. The GI50 (CCRF-CEM leukemia) was 2.42 µM, the TGI (CCRF-CEM leukemia) was greater than 100 µM and the GI50 (COLO 205 colon) was 4.8 µM. For the same compound, the TGI (COLO 205 colon) was greater than 100 µM, the GI50 (DU-145 prostate) was 4.98 µM and the TGI (DU-145 prostate) was greater than 100 µM. The GI50 (EKVX NSCLC) was 39.7 µM, the TGI (EKVX NSCLC) was greater than 100 µM and the GI50 (HCC-2998 colon) was greater than 100 µM. It also gave a TGI (HCC-2998 colon) greater than 100 µM, a GI50 (HCT-116 colon) of 1.28 µM and a TGI (HCT-116 colon) of 8.64 µM. The GI50 (HCT-15 colon) was 9.68 µM, the TGI (HCT-15 colon) was greater than 100 µM and the GI50 (HL-60(TB) leukemia) was 4.52 µM. For the same compound, the TGI (HL-60(TB) leukemia) was greater than 100 µM, the GI50 (HOP-62 NSCLC) was 4.04 µM and the TGI (HOP-62 NSCLC) was greater than 66.9 µM. It also gave a GI50 (HOP-92 NSCLC) of 2.61 µM, a TGI (HOP-92 NSCLC) of 17.1 µM and a GI50 (HS 578T breast) of 21.5 µM. It also gave a TGI (HS 578T breast) greater than 100 µM, a GI50 (HT29 colon) of 7.75 µM and a TGI (HT29 colon) greater than 100 µM. For the same compound, the GI50 (IGROV1 ovarian) was 28.9 µM, the TGI (IGROV1 ovarian) was greater than 100 µM and the GI50 (K-562 leukemia) was 6.17 µM. It also gave a TGI (K-562 leukemia) greater than 100 µM, a GI50 (KM12 colon) of 6.87 µM and a TGI (KM12 colon) greater than 100 µM. For the same compound, the GI50 (LOX IMVI melanoma) was 4.63 µM, the TGI (LOX IMVI melanoma) was 41.1 µM and the GI50 (M14 melanoma) was 6.25 µM. It also gave a TGI (M14 melanoma) greater than 73.2 µM, a GI50 (MALME-3M melanoma) of 23.7 µM and a TGI (MALME-3M melanoma) greater than 70.2 µM. It also gave a GI50 (MCF7 breast) of 1.89 µM, a TGI (MCF7 breast) greater than 100 µM and a GI50 (MDA-MB-231 breast) of 13.2 µM. The TGI (MDA-MB-231 breast) was greater than 100 µM, the GI50 (MDA-MB-435) was 1.43 µM and the TGI (MDA-MB-435) was greater than 100 µM. It also gave a GI50 (MOLT-4 leukemia) of 4.04 µM, a TGI (MOLT-4 leukemia) greater than 100 µM and a GI50 (NCI-H226 lung) of 3.02 µM. It also gave a TGI (NCI-H226 lung) of 20.2 µM, a GI50 (NCI-H23 lung) of 7.33 µM and a TGI (NCI-H23 lung) greater than 100 µM. It also gave a GI50 (NCI-H460 lung) of 25.2 µM, a TGI (NCI-H460 lung) greater than 100 µM and a GI50 (NCI-H522 lung) of 7 µM. The TGI (NCI-H522 lung) was 36.8 µM, the GI50 (NCI/ADR-RES ovarian) was 1.93 µM and the TGI (NCI/ADR-RES ovarian) was greater than 100 µM. For the same compound, the GI50 (OVCAR-3 ovarian) was 5.41 µM, the TGI (OVCAR-3 ovarian) was greater than 100 µM and the GI50 (OVCAR-4 ovarian) was 5.2 µM. For the same compound, the TGI (OVCAR-4 ovarian) was greater than 100 µM, the GI50 (OVCAR-5 ovarian) was greater than 54.5 µM and the TGI (OVCAR-5 ovarian) was greater than 100 µM. For the same compound, the GI50 (OVCAR-8 ovarian) was 2.08 µM, the TGI (OVCAR-8 ovarian) was greater than 100 µM and the GI50 (PC-3 prostate) was 20.4 µM. For the same compound, the TGI (PC-3 prostate) was greater than 100 µM, the GI50 (RPMI-8226 leukemia) was 0.837 µM and the TGI (RPMI-8226 leukemia) was 15.4 µM. For the same compound, the GI50 (RXF 393 renal) was 3.96 µM, the TGI (RXF 393 renal) was 24.2 µM and the GI50 (SF-268 CNS) was 6.9 µM. It also gave a TGI (SF-268 CNS) greater than 100 µM, a GI50 (SF-295 CNS) of 8.69 µM and a TGI (SF-295 CNS) greater than 100 µM. The GI50 (SF-539 CNS) was 24.4 µM, the TGI (SF-539 CNS) was greater than 100 µM and the GI50 (SK-MEL-2 melanoma) was 9.59 µM. The TGI (SK-MEL-2 melanoma) was 81.9 µM, the GI50 (SK-MEL-28 melanoma) was 21.6 µM and the TGI (SK-MEL-28 melanoma) was greater than 100 µM. It also gave a GI50 (SK-MEL-5 melanoma) of 3.48 µM, a TGI (SK-MEL-5 melanoma) greater than 100 µM and a GI50 (SK-OV-3 ovarian) of 13.4 µM. For the same compound, the TGI (SK-OV-3 ovarian) was greater than 100 µM, the GI50 (SN12C renal) was greater than 39.6 µM and the TGI (SN12C renal) was greater than 100 µM. The GI50 (SNB-19 CNS) was greater than 88.7 µM, the TGI (SNB-19 CNS) was greater than 100 µM and the GI50 (SNB-75 CNS) was 2.41 µM. The TGI (SNB-75 CNS) was 13.8 µM, the GI50 (SR leukemia) was 0.915 µM and the TGI (SR leukemia) was 22.6 µM. It also gave a GI50 (SW-620 colon) of 4.58 µM, a TGI (SW-620 colon) greater than 50.3 µM and a GI50 (T-47D breast) of 6.61 µM. The TGI (T-47D breast) was greater than 60.5 µM, the GI50 (TK-10 renal) was 4.68 µM and the TGI (TK-10 renal) was 27.9 µM. It also gave a GI50 (U251 CNS) of 2.53 µM, a TGI (U251 CNS) greater than 91.9 µM and a GI50 (UACC-257 melanoma) of 5 µM. It also gave a TGI (UACC-257 melanoma) greater than 81.1 µM, a GI50 (UACC-62 melanoma) of 10.9 µM and a TGI (UACC-62 melanoma) greater than 100 µM. The GI50 (UO-31 renal) was 11.8 µM and the TGI (UO-31 renal) was greater than 57.1 µM.
